Five substances from US8741852B2, “Peptides having antimicrobial activity” (Universiti Malaya, priority 2012, dated 2014) can be followed below.

Where two headings read alike, the source gives them in different places. No end group written: not given here.

Experiment [1] relates to Streptococcus pneumoniae. Put plainly: MIC by broth microdilution against all 60 pneumococcal isolates (overall). The format is cell-based. The source says: (§1) The antimicrobial peptides are thereafter tested using broth microdilution assay 5×10^5 cfu/ml against a total of 60 pneumococcal isolates (20 isolates for each penicillin-susceptible, -intermediate, and -resistant pneumococci) to determine their minimum inhibitory concentration (MIC).

Experiment [2] deals with A. baumannii. The format is cell-based, Acinetobacter baumannii. Here is the method:
(§2) Apart from Streptococcus pneumonia, the antimicrobial peptides are also tested for antimicrobial activity against eight common bacterial pathogens of both gram-types as shown in Table 2. […] Testing against the gram-negative Acinetobacter baumannii (31.25 μg/ml) and Citrobacter spp.

In experiment [3] the test system is E. coli. The format is cell-based, Escherichia coli. Here is the method: as §2
The test system of experiment [4] is bacterial pathogens. Put plainly: Spectrum of antibacterial activity (summary in words). Format: cell-based. Particulars: against Streptococcus pneumoniae, Acinetobacter baumannii, Staphylococcus aureus, methicillin-resistant Staphylococcus aureus, Escherichia coli, Citrobacter spp.
The subject of experiment [5] is eight common bacterial pathogens of both gram-types. The format is cell-based. As for the experimental part: as §2
The subject of experiment [6] is Citrobacter spp. Format: cell-based. Here is the method:
as §2

Experiment [7] has as its system E. cloacae. As for the experimental part:
as §2

Experiment [8] concerns penicilin-intermediate pneumococci.
Excerpt: as §1

The subject of experiment [9] is penicilin-susceptible pneumococci.
Excerpt: as §1

Experiment [10] relates to penicillin-resistant pneumococci.
Excerpt: as §1

Experiment [11] concerns K. pneumoniae. The format is cell-based, Klebsiella pneumoniae. Here is the method:
as §2

Experiment [12] relates to S. aureus. Format: cell-based, Staphylococcus aureus. As for the experimental part:
as §2

The subject of experiment [13] is P. aeruginosa. The format is cell-based, Pseudomonas aeruginosa. Here is the method:
as §2

Setting [14] is: Pseudomonas aeruginosa, Enterococcus cloacae.
Where [15] appears, read: Pseudomonas aeruginosa, Enterococcus cloacae, Klebsiella pneumoniae.

As to “GLFDIWAWWRWRR-NH2 (C-terminus assumed) [SEQ ID NO:2, Gly-Leu-Phe-Asp-Ile-Trp-Ala-Trp-Trp-Arg-Trp-Arg-Arg]”, in experiment [1], the “Overall EP” value turned out to be 100%. Further, the MIC was 31.25 µg/mL in [2] (Gram-negative); 250 µg/mL in experiment [3] (Gram-negative); 62.5 µg/mL in experiment [6] (Gram-negative); more than 250 µg/mL in [7]; more than 250 µg/mL in experiment [11]; 31.25 µg/mL in experiment [12]. In experiment [4], the antimicrobial activity entry was “has antimicrobial activity”. Besides, the “activity against the other bacteria” value in [5] (bacteria of Table 2 other than S. aureus, MRSA, A. baumannii, Citrobacter spp., E. coli) is on record as “non-active”. Moreover, the “EP (effective percentage, isolates inhibited within the effective range)” value in experiment [8], in experiment [9] and in experiment [10] was 100% throughout. Besides, the “ER (effective range of minimum inhibitory concentration)” value in [8] was in the range of 7.81 to 250 µg/mL; in experiment [9] it was 15.63 to 250 µg/mL; in [10], 15.63 to 250 µg/mL. In addition, in experiment [12], the “MIC level against Staphylococcus aureus as compared to methicillin-resistant Staphylococcus aureus” value is listed as “two fold lower”.
Take “GLFDKWAWWRWRR-NH2 (C-terminus assumed) [SEQ ID NO:1, Gly-Leu-Phe-Asp-Lys-Trp-Ala-Trp-Trp-Arg-Trp-Arg-Arg]”: the “Overall EP” value in [1] is 100%. Also, in experiment [4] (setting [14]), the antimicrobial activity entry is reported as “have antimicrobial activity”.
With “GLFDIWKKLRWRR-NH2 (C-terminus assumed) [SEQ ID NO:5, Gly-Leu-Phe-Asp-Ile-Trp-Lys-Lys-Leu-Arg-Trp-Arg-Arg]”, the “Overall EP” value in experiment [1] is 100%. The MIC in experiment [2] was 31.25 µg/mL; in experiment [3], 31.25 µg/mL; in [6], 31.25 µg/mL; in experiment [7] it was 125 µg/mL; in experiment [13], 31.25 µg/mL; in [11] it was 250 µg/mL. The MIC in experiment [12] stood at 125 µg/mL. In experiment [4] (setting [15]), the antimicrobial activity entry is “have antimicrobial activity”. Also, in experiment [5], the “range of minimum inhibitory concentrations” value lay within 31.25 to 125 µg/mL. The “EP (effective percentage, isolates inhibited within the effective range)” value in [8], in [9] and in experiment [10] was 100% in each case. Further, the “ER (effective range of minimum inhibitory concentration)” value in experiment [8] lay in the range of 15.63 to 125 µg/mL; in experiment [9] it was 15.63 to 125 µg/mL; in experiment [10], 31.25 to 125 µg/mL.
Take “GLFDIWKKWRWRR-NH2 (C-terminus assumed) [SEQ ID NO:4, Gly-Leu-Phe-Asp-Ile-Trp-Lys-Lys-Trp-Arg-Trp-Arg-Arg]”: the “Overall EP” value in experiment [1] is given as 100%. For the same substance, the antimicrobial activity entry in experiment [4] (setting [14]) is on record as “have antimicrobial activity”.
With “GLFDIWKWWRWRR-NH2 (C-terminus assumed) [SEQ ID NO:3, Gly-Leu-Phe-Asp-Ile-Trp-Lys-Trp-Trp-Arg-Trp-Arg-Arg]”, the “Overall EP” value in experiment [1] is listed as 100%. The antimicrobial activity entry in experiment [4] (setting [15]) is “have antimicrobial activity”. Also, in experiment [5], the “range of minimum inhibitory concentration” value lay within 7.81 to 125 µg/mL. For the same substance, the figures for the minimal inhibitory concentration (MIC) in experiment [6], in [7] and in [11] were 15.63 µg/mL, 31.25 µg/mL and 62.5 µg/mL, respectively. Moreover, the “EP (effective percentage, isolates inhibited within the effective range)” value in experiment [8], in experiment [9] and in experiment [10] was 100% each time. The entries for the “ER (effective range of minimum inhibitory concentration)” value in experiment [8], in experiment [9] and in experiment [10] were 7.81 to 250 µg/mL, 7.81 to 62.5 µg/mL and 15.63 to 62.5 µg/mL, respectively.
